Laboratory results from paper PMC9090415, “Discovery of small molecule inhibitors of Plasmodium falciparum apicoplast DNA polymerase” (Journal of Enzyme Inhibition and Medicinal Chemistry, 2022).

Biological target: P. falciparum apicoplast DNA polymerase (Pf-apPOL) (Plasmodium falciparum, UniProt Q8ILY1)
Assay: Fluorescence-based high-throughput DNA polymerase assay (molecular beacon), primary screen and dose-response
Format: biochemical
Settings: for DNA Pol: 90 min, 10 µM; for % inhibition apPOL 180' 2.5 / % inhibition apPOL 180' 5 / % inhibition apPOL 180' 10 / % inhibition apPOL 180' 20 / % inhibition apPOL 180' 40 / % inhibition apPOL 180' 80: read at 180'
Summary of the method: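 Single-point screening used 10 µM compound with 20 nM polymerase, 20 nM hairpin substrate and 6 µM dNTPs for 90 min at 25 °C. Confirmatory titrations (2.5–80 µM) followed fluorescence at three times, and IC50 was derived from a fit including a cooperativity term n.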

[1] = first dose-response, concentration 2.5
[2] = first dose-response, concentration 10
[3] = first dose-response, concentration 20

Sequence of P. falciparum apicoplast DNA polymerase (Pf-apPOL) (Q8ILY1 entry or part of it): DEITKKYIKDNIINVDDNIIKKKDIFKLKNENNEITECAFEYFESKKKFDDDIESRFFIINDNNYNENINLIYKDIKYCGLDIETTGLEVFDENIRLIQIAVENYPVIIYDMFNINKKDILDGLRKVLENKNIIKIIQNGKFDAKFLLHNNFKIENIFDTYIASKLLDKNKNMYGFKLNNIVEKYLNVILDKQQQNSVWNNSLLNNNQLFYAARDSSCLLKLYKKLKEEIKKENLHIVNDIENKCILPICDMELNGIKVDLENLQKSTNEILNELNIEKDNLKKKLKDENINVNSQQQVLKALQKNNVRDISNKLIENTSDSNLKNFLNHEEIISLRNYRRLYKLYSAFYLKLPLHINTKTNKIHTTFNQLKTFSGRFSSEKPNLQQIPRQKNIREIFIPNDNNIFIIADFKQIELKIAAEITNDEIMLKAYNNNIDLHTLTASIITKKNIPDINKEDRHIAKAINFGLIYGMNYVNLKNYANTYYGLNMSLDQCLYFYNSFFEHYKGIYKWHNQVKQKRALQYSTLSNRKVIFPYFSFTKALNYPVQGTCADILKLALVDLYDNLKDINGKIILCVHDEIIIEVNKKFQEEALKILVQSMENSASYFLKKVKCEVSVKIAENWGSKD

Q: What does the source list for `O=C(CSc1nnc(-c2ccco2)[nH]1)c1ccc(Cl)cc1` [KU0029065]?
A: DNA Pol ("DNA Pol" of the 186 hits list (screen value)): 40; % inhibition Apo pol 10' (DRC-1, concentration 2.5): 25.2453%; % inhibition Apo pol 10' (DRC-1, concentration 5): 33.7865%; % inhibition Apo pol 10' (DRC-1, concentration 10): 71.7651%; % inhibition Apo pol 10' (DRC-1, concentration 20): 81.7468%; % inhibition Apo pol 10' (DRC-1, concentration 40): 82.8592%; % inhibition Apo pol 10' (DRC-1, concentration 80): 73.082%; % inhibition Apol 90' (DRC-1, concentration 2.5): 14.2802%; % inhibition Apol 90' (DRC-1, concentration 5): 16.5602%; % inhibition Apol 90' (DRC-1, concentration 10): 48.3315%; % inhibition Apol 90' (DRC-1, concentration 20): 65.2838%; % inhibition Apol 90' (DRC-1, concentration 40): 75.799%; % inhibition Apol 90' (DRC-1, concentration 80): 79.1006%; % inhibition apPOL 180' (DRC-1, concentration 2.5): 10.7111%; % inhibition apPOL 180' (DRC-1, concentration 5): 8.15%; % inhibition apPOL 180' (DRC-1, concentration 10): 30.1123%; % inhibition apPOL 180' (DRC-1, concentration 20): 47.4786%; % inhibition apPOL 180' (DRC-1, concentration 40): 65.3498%; % inhibition apPOL 180' (DRC-1, concentration 80): 74.7958%; % inhibition Apo pol 5' (DRC-2, concentration 2.5): -0.174%; % inhibition Apo pol 5' (DRC-2, concentration 5): -0.717%; % inhibition Apo pol 5' (DRC-2, concentration 10): 6%; % inhibition Apo pol 5' (DRC-2, concentration 20): 26%; % inhibition Apo pol 5' (DRC-2, concentration 40): -5.63%; % inhibition Apo pol 5' (DRC-2, concentration 80): -27%; % inhibition Apol 40' (DRC-2, concentration 2.5): 0.888%; % inhibition Apol 40' (DRC-2, concentration 5): 0.406%; % inhibition Apol 40' (DRC-2, concentration 10): 7%; % inhibition Apol 40' (DRC-2, concentration 20): 17%; % inhibition Apol 40' (DRC-2, concentration 40): 0.537%; % inhibition Apol 40' (DRC-2, concentration 80): -50%; % inhibition ApPOL 90' (DRC-2, concentration 2.5): 1.21%; % inhibition ApPOL 90' (DRC-2, concentration 5): -0.831%; % inhibition ApPOL 90' (DRC-2, concentration 10): 6%; % inhibition ApPOL 90' (DRC-2, concentration 20): 23%; % inhibition ApPOL 90' (DRC-2, concentration 40): -0.138%; % inhibition ApPOL 90' (DRC-2, concentration 80): -49%; % inhibition apPOL 180' (DRC-2, concentration 2.5): 0.33%; % inhibition apPOL 180' (DRC-2, concentration 5): -8%; % inhibition apPOL 180' (DRC-2, concentration 10): -2.67%; % inhibition apPOL 180' (DRC-2, concentration 20): 15%; % inhibition apPOL 180' (DRC-2, concentration 40): -5%; % inhibition apPOL 180' (DRC-2, concentration 80): -45%; DNA Pol (primary screen value, DNA Pol): 40

Q: What does the source list for `COc1ccc(C2CC(c3ccc(Cl)cc3Cl)Nc3nc(N)nn32)cc1OC` (centres unmarked) [Molecule 43, COc1cc(ccc1OC)C1CC(Nc2n1nc(n2)N)c1ccc(cc1Cl)Cl]?
A: DNA Pol (186 hits, DNA Pol (screen value), unit not given): 50; DNA Pol ('DNA Pol' (screen value), unit not given): 50; % inhibition Apo pol 10' 2.5 (DRC-1, read at 10', concentration 2.5): 35%; % inhibition Apo pol 10' 5 (DRC-1, read at 10', concentration 5): 39%; % inhibition Apo pol 10' 10 (DRC-1, read at 10', concentration 10): 50%; % inhibition Apo pol 10' 20 (DRC-1, read at 10', concentration 20): 56%; % inhibition Apo pol 10' 40 (DRC-1, read at 10', concentration 40): 63%; % inhibition Apo pol 10' 80 (DRC-1, read at 10', concentration 80): 71%; % inhibition Apol 90' 2.5 (DRC-1, read at 90', concentration 2.5): 28%; % inhibition Apol 90' 5 (DRC-1, read at 90', concentration 5): 32%; % inhibition Apol 90' 10 (DRC-1, read at 90', concentration 10): 43%; % inhibition Apol 90' 20 (DRC-1, read at 90', concentration 20): 51%; % inhibition Apol 90' 40 (DRC-1, read at 90', concentration 40): 58%; % inhibition Apol 90' 80 (DRC-1, read at 90', concentration 80): 67%; % inhibition apPOL 180' 2.5 (DRC-1, concentration 2.5): 22%; % inhibition apPOL 180' 5 (DRC-1, concentration 5): 25%; % inhibition apPOL 180' 10 (DRC-1, concentration 10): 35%; % inhibition apPOL 180' 20 (DRC-1, concentration 20): 43%; % inhibition apPOL 180' 40 (DRC-1, concentration 40): 52%; % inhibition apPOL 180' 80 (DRC-1, concentration 80): 62%; % inhibition Apo pol 5' (DRC-2, concentration 5): 22%; % inhibition Apo pol 5' (DRC-2, concentration 10): 28%; % inhibition Apo pol 5' (DRC-2, concentration 20): 30%; % inhibition Apo pol 5' (DRC-2, concentration 40): 39%; % inhibition Apol 40' (DRC-2, concentration 2.5): 26%; % inhibition Apol 40' (DRC-2, concentration 5): 29%; % inhibition Apol 40' (DRC-2, concentration 20): 42%; % inhibition Apol 40' (DRC-2, concentration 80): 51%; % inhibition ApPOL 90' (DRC-2, concentration 2.5): 26%; % inhibition ApPOL 90' (DRC-2, concentration 5): 29%; % inhibition ApPOL 90' (DRC-2, concentration 20): 42%; % inhibition ApPOL 90' (DRC-2, concentration 40): 50%; % inhibition ApPOL 90' (DRC-2, concentration 80): 52%; % inhibition apPOL 180' (DRC-2, concentration 10): 30%; % inhibition apPOL 180' (DRC-2, concentration 20): 35%; % inhibition apPOL 180' (DRC-2, concentration 40): 43%; % inhibition Apo pol 5' 2.5 (DRC-2, read at 5', concentration 2.5): 23%; % inhibition Apo pol 5' 5 (DRC-2, read at 5', concentration 5): 22%; % inhibition Apo pol 5' 10 (DRC-2, read at 5', concentration 10): 28%; % inhibition Apo pol 5' 20 (DRC-2, read at 5', concentration 20): 30%; % inhibition Apo pol 5' 40 (DRC-2, read at 5', concentration 40): 39%; % inhibition Apo pol 5' 80 (DRC-2, read at 5', concentration 80): 38%; % inhibition Apol 40' 2.5 (DRC-2, read at 40', concentration 2.5): 26%; % inhibition Apol 40' 5 (DRC-2, read at 40', concentration 5): 29%; % inhibition Apol 40' 10 (DRC-2, read at 40', concentration 10): 36%; % inhibition Apol 40' 20 (DRC-2, read at 40', concentration 20): 42%; % inhibition Apol 40' 40 (DRC-2, read at 40', concentration 40): 49%; % inhibition Apol 40' 80 (DRC-2, read at 40', concentration 80): 51%; % inhibition ApPOL 90' 2.5 (DRC-2, read at 90', concentration 2.5): 26%; % inhibition ApPOL 90' 5 (DRC-2, read at 90', concentration 5): 29%; % inhibition ApPOL 90' 10 (DRC-2, read at 90', concentration 10): 37%; % inhibition ApPOL 90' 20 (DRC-2, read at 90', concentration 20): 42%; % inhibition ApPOL 90' 40 (DRC-2, read at 90', concentration 40): 50%; % inhibition ApPOL 90' 80 (DRC-2, read at 90', concentration 80): 52%; % inhibition apPOL 180' 2.5 (DRC-2, concentration 2.5): 18%; % inhibition apPOL 180' 5 (DRC-2, concentration 5): 21%; % inhibition apPOL 180' 10 (DRC-2, concentration 10): 30%; % inhibition apPOL 180' 20 (DRC-2, concentration 20): 35%; % inhibition apPOL 180' 40 (DRC-2, concentration 40): 43%; % inhibition apPOL 180' 80 (DRC-2, concentration 80): 46%; % inhibition Apo pol 10' [1]: 35%; % inhibition Apo pol 10' (first dose-response, concentration 5): 39%; % inhibition Apo pol 10' [2]: 50%; % inhibition Apol 90' [1]: 28%; % inhibition Apol 90' [2]: 43%; % inhibition Apol 90' [3]: 51%; % inhibition apPOL 180' [1]: 22%; % inhibition apPOL 180' [2]: 35%; % inhibition apPOL 180' [3]: 43%; % inhibition apPOL 180' (first dose-response, concentration 40): 52%

Q: Which results are given for `O=C(Cn1ccc2c(=O)[nH]ccc21)Nc1cc(F)ccc1F` [Molecule 42, O=C(Cn1ccc2c1cc[nH]c2=O)Nc1cc(F)ccc1F]?
A: DNA Pol ('DNA Pol' of the 186 hits list (primary screen value)): 40; DNA Pol (DNA Pol (primary screen value)): 40; % inhibition Apo pol 10' (DRC-1, concentration 2.5): -0.6304%; % inhibition Apo pol 10' (DRC-1, concentration 5): 13.4677%; % inhibition Apo pol 10' (DRC-1, concentration 10): 49.4515%; % inhibition Apo pol 10' (DRC-1, concentration 20): 62.1247%; % inhibition Apo pol 10' (DRC-1, concentration 40): 77.421%; % inhibition Apo pol 10' (DRC-1, concentration 80): 76.1541%; % inhibition Apol 90' (DRC-1, concentration 2.5): -3.25%; % inhibition Apol 90' (DRC-1, concentration 5): 4.148%; % inhibition Apol 90' (DRC-1, concentration 10): 35.5527%; % inhibition Apol 90' (DRC-1, concentration 20): 52.2284%; % inhibition Apol 90' (DRC-1, concentration 40): 71.4461%; % inhibition Apol 90' (DRC-1, concentration 80): 77.7263%; % inhibition apPOL 180' (DRC-1, concentration 2.5): -7.978%; % inhibition apPOL 180' (DRC-1, concentration 5): -3.837%; % inhibition apPOL 180' (DRC-1, concentration 10): 18.2291%; % inhibition apPOL 180' (DRC-1, concentration 20): 34.5428%; % inhibition apPOL 180' (DRC-1, concentration 40): 57.1907%; % inhibition apPOL 180' (DRC-1, concentration 80): 71.3539%; % inhibition Apo pol 5' (DRC-2, concentration 2.5): 3.65%; % inhibition Apo pol 5' (DRC-2, concentration 5): 11%; % inhibition Apo pol 5' (DRC-2, concentration 10): 31%; % inhibition Apo pol 5' (DRC-2, concentration 20): 40%; % inhibition Apo pol 5' (DRC-2, concentration 40): 37%; % inhibition Apo pol 5' (DRC-2, concentration 80): 27%; % inhibition Apol 40' (DRC-2, concentration 2.5): 2.11%; % inhibition Apol 40' (DRC-2, concentration 5): 13%; % inhibition Apol 40' (DRC-2, concentration 10): 36%; % inhibition Apol 40' (DRC-2, concentration 20): 54%; % inhibition Apol 40' (DRC-2, concentration 40): 58%; % inhibition Apol 40' (DRC-2, concentration 80): 54%; % inhibition ApPOL 90' (DRC-2, concentration 2.5): 0.827%; % inhibition ApPOL 90' (DRC-2, concentration 5): 10%; % inhibition ApPOL 90' (DRC-2, concentration 10): 34%; % inhibition ApPOL 90' (DRC-2, concentration 20): 54%; % inhibition ApPOL 90' (DRC-2, concentration 40): 60%; % inhibition ApPOL 90' (DRC-2, concentration 80): 59%; % inhibition apPOL 180' (DRC-2, concentration 2.5): -5%; % inhibition apPOL 180' (DRC-2, concentration 5): 4.53%; % inhibition apPOL 180' (DRC-2, concentration 10): 24%; % inhibition apPOL 180' (DRC-2, concentration 20): 46%; % inhibition apPOL 180' (DRC-2, concentration 40): 59%; % inhibition apPOL 180' (DRC-2, concentration 80): 62%
